Experimental data: patent EP0074599A1, “5,6-cis-Carbapenem derivatives, their production and use” (Takeda Chemical Industries, Ltd., priority 1981, dated 1983)

Experiments:
Assay in all cases: Minimal Inhibitory Concentration (MIC), agar dilution method
Assay type in all cases: cell-based
Design in all cases: unit not given here
E. coli T-7 = conditions: Test Microorganism (6) E. coli T-7; Trypticase soy agar, 37°C for 18 hours
Experimental: (§1) Minimal Inhibitory Concentration (MIC)
(§2) The Minimal Inhibitory Concentrations of the tested compounds were determined according to the agar dilution method. Namely, 1.0 ml each of aqueous solution of the tested compounds diluted by serial dilutions was poured into test petri dishes, subsequently 9.0 ml each of Trypticase soy agar was poured into the dishes and mixed. On each of the mixed agar plates, one loopful of bacterial suspension (about 10^8 CFU/ml) of test microorganism was streaked.
(§3) After the incubation at 37°C for 18 hours, the lowest concentration of the tested compounds in the medium which caused apparently complete inhibition of growth of the test microorganism was taken to be minimal inhibitory concentration.
(§4) • (1) S. aureus FDA 209P • (2) S. aureus 308 A-1 • (3) S. aureus 1840 • (4) E. coli NIHJ JC-2 • (5) E. coli 0-111 • (6) E. coli T-7 • (7) C. freundii IFO 12681 • (8) K. pneumoniae DT • (9) E. cloacae IFO 12937 • (10) S. marcescens IFO 12648 • (11) P. vulgaris IFO 3988 • (12) P.-mirabilis IFO 3849 • (13) P. morganii IFO 3168 • (14) P. aeruginosa IFO 3455 • (15) P. aeruginosa U 31 • (16) A. calcoaceticus IFO 13006

S. aureus FDA 209P = conditions: Test Microorganism (1) S. aureus FDA 209P; Trypticase soy agar, 37°C for 18 hours
Experimental: as §1, §2, §3, §4

S. marcescens IFO 12648 = conditions: Test Microorganism (10) S. marcescens IFO 12648; Trypticase soy agar, 37°C for 18 hours
Experimental: as §1, §2, §3, §4

P. aeruginosa IFO 3455 = conditions: Test Microorganism (14) P. aeruginosa IFO 3455; Trypticase soy agar, 37°C for 18 hours
Experimental: as §1, §2, §3, §4

P. morganii IFO 3168 = conditions: Test Microorganism (13) P. morganii IFO 3168; Trypticase soy agar, 37°C for 18 hours
Experimental: as §1, §2, §3, §4

P. vulgaris IFO 3988 = conditions: Test Microorganism (11) P. vulgaris IFO 3988; Trypticase soy agar, 37°C for 18 hours
Experimental: as §1, §2, §3, §4

[1] = tested on: A. calcoaceticus IFO 13006; conditions: Test Microorganism (16) A. calcoaceticus IFO 13006; Trypticase soy agar, 37°C for 18 hours
Experimental: as §1, §2, §3, §4

K. pneumoniae DT = conditions: Test Microorganism (8) K. pneumoniae DT; Trypticase soy agar, 37°C for 18 hours
Experimental: as §1, §2, §3, §4

P. aeruginosa U 31 = conditions: Test Microorganism (15) P. aeruginosa U 31; Trypticase soy agar, 37°C for 18 hours
Experimental: as §1, §2, §3, §4

C. freundii IFO 12681 = conditions: Test Microorganism (7) C. freundii IFO 12681; Trypticase soy agar, 37°C for 18 hours
Experimental: as §1, §2, §3, §4

E. coli 0-111 = conditions: Test Microorganism (5) E. coli 0-111; Trypticase soy agar, 37°C for 18 hours
Experimental: as §1, §2, §3, §4

S. aureus 1840 = conditions: Test Microorganism (3) S. aureus 1840; Trypticase soy agar, 37°C for 18 hours
Experimental: as §1, §2, §3, §4

E. cloacae IFO 12937 = conditions: Test Microorganism (9) E. cloacae IFO 12937; Trypticase soy agar, 37°C for 18 hours
Experimental: as §1, §2, §3, §4

S. aureus 308 A-1 = conditions: Test Microorganism (2) S. aureus 308 A-1; Trypticase soy agar, 37°C for 18 hours
Experimental: as §1, §2, §3, §4

E. coli NIHJ JC-2 = conditions: Test Microorganism (4) E. coli NIHJ JC-2; Trypticase soy agar, 37°C for 18 hours
Experimental: as §1, §2, §3, §4

P.-mirabilis IFO 3849 = conditions: Test Microorganism (12) P.-mirabilis IFO 3849; Trypticase soy agar, 37°C for 18 hours
Experimental: as §1, §2, §3, §4

Row | SMILES | Minimal Inhibitory Concentration (MIC) (E. coli T-7) | Minimal Inhibitory Concentration (MIC) (S. aureus FDA 209P) | Minimal Inhibitory Concentration (MIC) (S. marcescens IFO 12648) | Minimal Inhibitory Concentration (MIC) (P. aeruginosa IFO 3455) | Minimal Inhibitory Concentration (MIC) (P. morganii IFO 3168) | Minimal Inhibitory Concentration (MIC) (P. vulgaris IFO 3988) | Minimal Inhibitory Concentration (MIC) [1] | Minimal Inhibitory Concentration (MIC) (K. pneumoniae DT) | Minimal Inhibitory Concentration (MIC) (P. aeruginosa U 31) | Minimal Inhibitory Concentration (MIC) (C. freundii IFO 12681) | Minimal Inhibitory Concentration (MIC) (E. coli 0-111) | Minimal Inhibitory Concentration (MIC) (S. aureus 1840) | Minimal Inhibitory Concentration (MIC) (E. cloacae IFO 12937) | Minimal Inhibitory Concentration (MIC) (S. aureus 308 A-1) | Minimal Inhibitory Concentration (MIC) (E. coli NIHJ JC-2) | Minimal Inhibitory Concentration (MIC) (P.-mirabilis IFO 3849)
1 | CC(C)(O)[C@@H]1C(=O)N2C(C(=O)O)=C(SCCN3CCCCC3)C[C@H]12 [Example 51, 5,6-cis-3-(2-Piperidinoethylthio)-6-(1-hydroxy-1-methylethyl)-7-oxo-1-azabicyclo[3.2.0]hept-2-ene-carboxylic acid] | 0.78 | 0.2 | 6.25 | 50 | 25 | 25 | 25 | 6.25 | >100 | 3.13 | 0.39 | 0.78 | 6.25 | 0.39 | 0.78 | 25
2 | CC(C)(O)[C@@H]1C(=O)N2C(C(=O)O)=C(Sc3cccnn3)C[C@H]12 [Example 20, Sodium 5,6-cis-3-(3-pyridazinylthio)-6-(l-hydroxy-l-methylethyl)-7-oxo-1-azabicyclo[3.2.0]hept-2-ene-2-carboxylate] | 3.13 | 0.39 | 1.56 | 50 | 3.13 | 3.13 | 12.5 | 0.78 | >100 | 0.78 | 0.2 | 0.78 | 1.56 | 0.39 | 0.78 | 3.13
3 | CC(C)(O)[C@@H]1C(=O)N2C(C(=O)O)=C(SCCCN)C[C@H]12 [Example 33, 5,6-cis-3-(3-Aminopropylthio)-6-(l-hydroxy-l-methylethyl)-7-oxo-l-azabicyclo[3.2.0]hept-2-ene-2-carboxylic acid] | 0.78 | 0.78 | 6.25 | 12.5 | 50 | 50 | 3.13 | 6.25 | 50 | 3.13 | 0.39 | 0.78 | 6.25 | 0.78 | 0.39 | 50
4 | CC(C)(O)[C@@H]1C(=O)N2C(C(=O)O)=C(SCCCNC=N)C[C@H]12 [Example 47, 5,6-cis-3-(3-formimidoylaminopropylthio)-6-(1-hydroxy-1-methylethyl)-7-oxo-1-azabicyclo[3.2.0]hept-2-ene-2-carboxylic - acid] | 0.78 | 0.39 | 3.13 | 3.13 | 25 | 25 | 6.25 | 6.25 | 12.5 | 1.56 | 0.39 | 0.78 | 6.25 | 0.39 | 0.39 | 25
5 | CC(C)(O)[C@@H]1C(=O)N2C(C(=O)O)=C(SCCNC=N)C[C@H]12 [Example 46, 5,6-cis-3-(2-formimidoylaminoethylthio)-6-(1-hydroxy-1-methylethyl)-7-oxo-l-azabicyclo[3.2.0]hept-2-ene-2-carboxylic acid] | 0.78 | 0.39 | 3.13 | 3.13 | 25 | 25 | 6.25 | 6.25 | 6.25 | 1.56 | 0.39 | 0.78 | 6.25 | 0.78 | 0.39 | 25
6 | CN(C)CCSC1=C(C(=O)O)N2C(=O)[C@@H](C(C)(C)O)[C@H]2C1 [Example 26, 5,6-cis-3-[2-(N,N-Dimethylaminoethyl)thio]-6-(1-hydroxy-1-methylethyl)-7-oxo-1-azabicyclo[3.2.0]hept-2-ene-2-carboxylic acid] | 0.78 | 0.39 | 6.25 | 25 | 50 | 50 | 12.5 | 25 | 50 | 3.13 | 0.39 | 0.78 | 6.25 | 0.39 | 0.78 | 50
7 | CC(C)(O)[C@@H]1C(=O)N2C(C(=O)O)=C(SCCN)C[C@H]12 [Example 2] | 1.56 | 0.39 | 12.5 | 6.25 | 50 | 50 | 3.13 | 12.5 | 25 | 3.13 | 0.39 | 1.56 | 12.5 | 0.78 | 1.56 | 50
8 | CC(C)(O)[C@@H]1C(=O)N2C(C(=O)O)=C(SCCN3CCCC3)C[C@H]12 [Example 49] | 0.78 | 0.2 | 6.25 | 12.5 | 50 | 100 | 12.5 | 6.25 | 50 | 3.13 | 0.39 | 0.78 | 12.5 | 0.39 | 0.78 | 50
